In patent publication US11191756B2, “Dosing and effect of C5a antagonist with ANCA-associated vasculitis” (CHEMOCENTRYX, INC., priority 2018, dated 2021):
Entries after “also recorded” stand apart in the source; their conditions may differ.

Assays:
Assay type in all cases: in vivo, human
complement factor Bb = experiment: Plasma complement factor Bb by ELISA in AAV patients of the CLEAR trial; details: for Bb, change in plasma level (Summary of Results): AAV patients, 12 week treatment period, all also received cyclophosphamide or rituximab
Protocol: (§1) The CLEAR trial (Jayne D R W, et al. JASN 2017; 28:2756) compared 3 regimens in 67 patients with AAV: (1) full dose prednisone (60 mg daily, tapered); (2) avacopan 30 mg twice daily plus low dose prednisone (20 mg, tapered); (3) avacopan 30 mg twice daily plus no prednisone. All also received either cyclophosphamide or rituximab. There was a 12-week treatment period with 12 week follow-up period
(§2) Plasma samples were collected from AAV patients who participated in CLEAR study at baseline and at 6 hour, Days 8, 29, and 85 during treatment. Plasma samples from 20 health controls matched for age, gender and ethnic background were collected at UNC Kidney Center.
(§3) EDTA whole blood was kept on ice immediately after collection and centrifuged at 4° C. for plasma preparation. Plasma samples were stored at −80° C. freezer until analysis for complement Bb, C5a, […] and properdin by ELISA in one thaw.
(§4) Paired t-test was used for within group comparison and unpaired t-test was used for between group comparisons using log transformed data. P-values were corrected for multiple comparisons.

complement factor C3a = experiment: Plasma complement factor C3a by ELISA in AAV patients of the CLEAR trial; details: for C3a levels compared to baseline: full dose prednisone; for C3a, change in plasma level (Summary of Results): AAV patients, 12 week treatment period, all also received cyclophosphamide or rituximab
Protocol: as §1, §2, §3, §4

complement factor C5a = experiment: Plasma complement factor C5a by ELISA in AAV patients of the CLEAR trial; details: for C5a, change in plasma level (Summary of Results): AAV patients, 12 week treatment period, all also received cyclophosphamide or rituximab
Protocol: as §1, §2, §3, §4

sC5b-9 = experiment: Plasma sC5b-9 by ELISA in AAV patients of the CLEAR trial; details: for sC5b-9, change in plasma level (Summary of Results): AAV patients, 12 week treatment period, all also received cyclophosphamide or rituximab; for circulating sC5b-9 levels, change from baseline: any treatment group, 6 h, days 8, 29, 85
Protocol: as §1, §2, §3, §4

properdin = experiment: Plasma properdin by ELISA in AAV patients of the CLEAR trial; details: for Properdin, change in plasma level (Summary of Results): AAV patients, 12 week treatment period, all also received cyclophosphamide or rituximab; for circulating properdin levels, change from baseline: any treatment group, 6 h, days 8, 29, 85
Protocol: as §1, §2, §3, §4

patients with AAV = experiment: CLEAR trial clinical outcome in ANCA-associated vasculitis; details: for clinical benefit / improvement in AAV: 12 week treatment period, avacopan 30 mg twice daily
Source text: (A) plots the Birmingham Vasculitis Activity Score; (B) plots the urinary albumin to creatine ration; (C) plots the EuroQOL-5D-5L visual analgue scale; (D) plots the Short Form-36 physical functioning results; and (E) plots the Short Form-36 role emotional results. Patients receiving high dose prednisone are plotted with diamonds; patients receiving avacopan with low dose prednisone are plotted with squares; and patients receiving avacopan with no prednisone are plotted with triangles.
as §1

[1] = day 85, when prednisone was tapered
[2] = CLEAR trial, AAV patients, avacopan with low dose or no prednisone

C[C@]12C=CC(=O)C=C1CC[C@@H]1[C@@H]2C(=O)C[C@@]2(C)[C@H]1CC[C@]2(O)C(=O)CO [Prednisone, prednisone]
Bb, change in plasma level (Summary of Results) (complement factor Bb): ↓
Bb levels (complement factor Bb; [1]): rising again; also recorded: rose again
Bb levels compared to pre-dose (complement factor Bb; days 8 and 29, full dose prednisone 60 mg daily, tapered): decreased significantly
C3a levels compared to baseline (complement factor C3a; 6 hours): decreased
C3a, change in plasma level (Summary of Results) (complement factor C3a): ↓
C3a levels (complement factor C3a; [1]): rising again; also recorded: rose again
C3a levels compared to baseline (complement factor C3a; days 8 and 29): decreased significantly; also recorded: further decreased
C5a, change in plasma level (Summary of Results) (complement factor C5a): ↓
C5a levels compared to baseline (complement factor C5a; day 8 and 29, high dose prednisone): decreased significantly; also recorded: decrease
C5a levels (complement factor C5a; [1]): rising again; also recorded: rose again
sC5b-9, change in plasma level (Summary of Results) (sC5b-9): No changes
circulating sC5b-9 levels, change from baseline (sC5b-9): No statistically significant changes
Properdin, change in plasma level (Summary of Results) (properdin): No changes
circulating properdin levels, change from baseline (properdin): No statistically significant changes

Cc1ccc(NC(=O)[C@H]2CCCN(C(=O)c3c(C)cccc3F)[C@H]2c2ccc(NC3CCCC3)cc2)cc1C(F)(F)F [Avacopan, avacopan]
Bb, change in plasma level (Summary of Results) (complement factor Bb): No changes
Bb levels during treatment compared to pre-dose (complement factor Bb; avacopan 30 mg twice daily with low dose or no prednisone, 6 h, days 8, 29, 85): did not impact; also recorded: No change
C3a, change in plasma level (Summary of Results) (complement factor C3a): No changes
C3a levels during treatment compared to baseline (complement factor C3a; avacopan 30 mg twice daily without prednisone, 6 h, days 8, 29, 85): did not impact; also recorded: No change
C5a, change in plasma level (Summary of Results) (complement factor C5a): No changes
C5a levels during treatment compared to baseline (complement factor C5a; avacopan 30 mg twice daily with low or no prednisone, 6 h, days 8, 29, 85): did not impact; also recorded: No change
sC5b-9, change in plasma level (Summary of Results) (sC5b-9): No changes
circulating sC5b-9 levels, change from baseline (sC5b-9): did not change; also recorded: No statistically significant changes
Properdin, change in plasma level (Summary of Results) (properdin): No changes
circulating properdin levels, change from baseline (properdin): No statistically significant changes
clinical benefit / improvement in AAV (patients with AAV): achieved clinical benefit; also recorded: rapid improvement
clinical benefit / improvement in AAV (patients with AAV; listed as avacopan): rapidly improves
disease activity (Birmingham Vasculitis Activity Score, urinary albumin to creatinine ratio) (patients with AAV; [2]): rapid decrease
health-related quality of life (EuroQOL-5D-5L, Short Form-36) (patients with AAV; [2]): significant improvement
